{"source": "patent US20260158014A1", "about": "“METHODS OF ADMINISTERING VOXELOTOR” (Global Blood Therapeutics, Inc., priority 2021, published 2026)", "key": {"[1]": {"assay": "Voxelotor in milk of lactating rats", "assay_type": "in vivo, rat"}, "[2]": {"assay": "Physicochemical description (solubility, hygroscopicity)", "conditions": "crystalline Form II free base"}, "CYP2C9": {"target": "T1, CYP2C9 (Homo sapiens, UniProt P11712)", "T1 construct": "endogenous in cells; host or cells: healthy human subjects (in vivo)", "T1 sequence (P11712 whole entry)": "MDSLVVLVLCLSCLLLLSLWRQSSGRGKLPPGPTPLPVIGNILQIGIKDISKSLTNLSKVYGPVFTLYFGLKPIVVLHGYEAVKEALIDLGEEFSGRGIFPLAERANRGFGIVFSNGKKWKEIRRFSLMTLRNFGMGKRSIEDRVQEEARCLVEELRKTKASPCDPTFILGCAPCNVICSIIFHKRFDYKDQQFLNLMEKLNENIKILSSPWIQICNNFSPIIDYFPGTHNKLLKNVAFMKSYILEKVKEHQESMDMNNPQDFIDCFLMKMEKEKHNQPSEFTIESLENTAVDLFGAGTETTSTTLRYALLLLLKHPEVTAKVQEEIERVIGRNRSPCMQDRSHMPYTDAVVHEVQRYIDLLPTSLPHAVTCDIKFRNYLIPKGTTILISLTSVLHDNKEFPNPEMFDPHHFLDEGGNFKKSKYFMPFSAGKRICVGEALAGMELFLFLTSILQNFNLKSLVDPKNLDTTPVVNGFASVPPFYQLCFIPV", "assay": "Clinical probe-substrate DDI study: S-warfarin", "assay_type": "in vivo", "experimental": "(§1) The effect of voxelotor on the pharmacokinetics (PK) of a single dose of caffeine, warfarin sodium, omeprazole, and midazolam hydrochloride, which are probe substrates for cytochrome P450 (CYP)1A2, CYP2C9, CYP2C19, and CYP3A4, respectively, were studied in healthy subjects. During Period 1, subjects received a single dose of caffeine 100 mg, warfarin sodium 10 mg+vitamin K 10 mg, omeprazole 20 mg, and midazolam hydrochloride 2 mg on Day 1. During Period 2, subjects received voxelotor 900 mg QD on Days 1 and 2 followed by 600 mg QD on Day 3, a single dose of caffeine 100 mg, warfarin sodium 10 mg+vitamin K 10 mg, omeprazole 20 mg, and midazolam hydrochloride 2 mg on Day 4, and voxelotor 600 mg QD on Days 4 through 7.\n(§2) Whole blood and plasma concentrations of voxelotor and plasma concentrations of caffeine, paraxanthine, S-warfarin, omeprazole, 5-hydroxyomeprazole, midazolam, and 1-hydroxymidazolam were determined using validated assays."}, "[3]": {"assay": "Population PK modeling of voxelotor in patients aged 4 to 11 years (part C)", "assay_type": "in vivo, human", "conditions": "4-11 years, n=38; for % of patients with ≥20% Hb occupancy / % Hb occupancy: weight-based dosing; for % Hb occupancy: geometric mean (% CV) in Table 3", "experimental": "Population PK modeling was used to determine the whole-blood and plasma PK parameters of voxelotor in the study population. The PK parameters included maximum whole blood or plasma concentration (Cmax), area under the concentration-time curve (AUC), terminal elimination half-life (t1/2), and percent Hb occupancy.\nStatistical analyses: All efficacy and safety assessments were summarized with descriptive statistics. Population PK analyses using nonlinear mixed-effects modeling were performed to characterize voxelotor PK in plasma and whole blood."}, "rat": {"system": "rat", "assay": "Rat Comet assay", "conditions": "in vivo"}, "CYP3A4": {"target": "CYP3A4 (Homo sapiens, UniProt P08684)", "sequence (P08684 whole entry)": "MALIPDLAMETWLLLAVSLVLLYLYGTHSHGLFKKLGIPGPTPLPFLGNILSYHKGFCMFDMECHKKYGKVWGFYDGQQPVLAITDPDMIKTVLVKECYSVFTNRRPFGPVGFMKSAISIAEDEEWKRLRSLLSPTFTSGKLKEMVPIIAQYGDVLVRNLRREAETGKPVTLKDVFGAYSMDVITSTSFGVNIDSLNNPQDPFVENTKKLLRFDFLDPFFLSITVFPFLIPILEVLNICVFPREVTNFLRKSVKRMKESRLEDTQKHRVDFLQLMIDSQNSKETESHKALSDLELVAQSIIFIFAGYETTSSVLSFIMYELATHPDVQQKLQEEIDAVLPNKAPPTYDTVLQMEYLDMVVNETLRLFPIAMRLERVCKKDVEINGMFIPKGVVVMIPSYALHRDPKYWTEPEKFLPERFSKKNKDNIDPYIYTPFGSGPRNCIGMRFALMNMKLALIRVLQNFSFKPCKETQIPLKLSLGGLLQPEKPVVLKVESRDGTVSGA", "assay": "Clinical probe-substrate DDI study: midazolam", "conditions": "human, in vivo", "experimental": "as §1, §2"}, "rats": {"system": "rats", "assay": "Fertility and early embryonic development study", "assay_type": "in vivo, rat", "experimental": "In a fertility and early embryonic development study, voxelotor was administered orally to rats at 15, 50, and 250 mg/kg/day. Males were dosed 28 days prior to mating through cohabitation and females were dosed 14 days prior to mating through gestation Day 7."}, "Hb": {"system": "Hb", "assay": "Pharmacodynamics: Hb oxygen affinity (p50) and clinical measures of hemolysis", "assay_type": "in vivo"}, "[4]": {"assay": "PK in subjects with hepatic impairment", "assay_type": "in vivo, human"}, "BSEP": {"target": "BSEP (Homo sapiens, UniProt O95342)", "sequence (O95342 whole entry, species assumed)": "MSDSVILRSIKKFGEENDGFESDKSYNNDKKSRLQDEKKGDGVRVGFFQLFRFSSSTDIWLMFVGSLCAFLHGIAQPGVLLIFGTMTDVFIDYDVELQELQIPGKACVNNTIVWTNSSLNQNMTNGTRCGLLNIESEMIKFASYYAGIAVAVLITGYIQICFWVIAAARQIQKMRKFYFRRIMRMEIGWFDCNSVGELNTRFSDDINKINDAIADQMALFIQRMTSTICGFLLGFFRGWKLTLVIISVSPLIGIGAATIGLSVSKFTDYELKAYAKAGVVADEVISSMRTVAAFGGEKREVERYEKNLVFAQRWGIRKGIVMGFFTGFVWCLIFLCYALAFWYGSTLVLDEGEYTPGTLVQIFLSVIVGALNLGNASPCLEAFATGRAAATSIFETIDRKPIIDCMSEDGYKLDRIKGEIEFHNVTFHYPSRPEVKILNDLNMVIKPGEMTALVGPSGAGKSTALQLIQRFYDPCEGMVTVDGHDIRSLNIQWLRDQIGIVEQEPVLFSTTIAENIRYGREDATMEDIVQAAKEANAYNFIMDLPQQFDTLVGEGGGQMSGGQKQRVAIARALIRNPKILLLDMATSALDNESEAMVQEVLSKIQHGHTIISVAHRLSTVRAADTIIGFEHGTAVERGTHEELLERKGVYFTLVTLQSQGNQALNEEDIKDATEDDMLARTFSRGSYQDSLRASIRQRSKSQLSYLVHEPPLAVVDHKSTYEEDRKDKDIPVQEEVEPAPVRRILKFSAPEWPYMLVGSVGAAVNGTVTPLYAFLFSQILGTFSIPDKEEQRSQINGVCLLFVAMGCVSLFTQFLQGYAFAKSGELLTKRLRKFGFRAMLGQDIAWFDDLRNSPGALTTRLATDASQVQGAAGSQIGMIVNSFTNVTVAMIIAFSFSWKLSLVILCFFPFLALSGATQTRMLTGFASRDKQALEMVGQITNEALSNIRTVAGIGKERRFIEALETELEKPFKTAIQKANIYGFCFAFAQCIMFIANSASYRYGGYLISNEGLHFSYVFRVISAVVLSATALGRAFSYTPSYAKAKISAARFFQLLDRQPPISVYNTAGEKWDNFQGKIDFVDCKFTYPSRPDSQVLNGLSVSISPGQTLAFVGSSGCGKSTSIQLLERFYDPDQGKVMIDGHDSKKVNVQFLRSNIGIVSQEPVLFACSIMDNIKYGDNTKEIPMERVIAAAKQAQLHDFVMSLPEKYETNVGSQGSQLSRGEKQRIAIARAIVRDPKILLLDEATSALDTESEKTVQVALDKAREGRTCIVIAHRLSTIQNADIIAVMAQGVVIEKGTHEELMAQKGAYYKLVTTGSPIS", "assay": "In vitro transporter study", "assay_type": "in vitro ADME"}, "OAT3": {"target": "OAT3 (Homo sapiens, UniProt Q8TCC7)", "assay": "In vitro transporter study", "assay_type": "in vitro ADME"}, "[5]": {"assay": "Excretion of radiolabeled voxelotor", "assay_type": "in vivo"}, "patients with SCD": {"system": "patients with SCD", "assay": "HOPE trial: safety", "assay_type": "in vivo, human", "experimental": "The safety of OXBRYTA was evaluated in the HOPE trial based on data from 88 patients with SCD who received OXBRYTA 1,500 mg and 91 patients who received placebo orally once daily [see Clinical Studies (14.1)]. Seventy-four patients received OXBRYTA 1,500 mg once daily for ≥24 weeks, 65 patients for ≥48 weeks, and 63 patients completed the 72-week treatment period.\nIn patients who received OXBRYTA 1,500 mg once daily, the median age was 24 years (range:12 to 59 years); 65% female; 66% Black or African American and 23% Arab/Middle Eastern; and 65% receiving hydroxyurea at baseline."}, "P-gp": {"target": "P-gp (Homo sapiens, UniProt P08183)", "sequence (P08183 whole entry)": "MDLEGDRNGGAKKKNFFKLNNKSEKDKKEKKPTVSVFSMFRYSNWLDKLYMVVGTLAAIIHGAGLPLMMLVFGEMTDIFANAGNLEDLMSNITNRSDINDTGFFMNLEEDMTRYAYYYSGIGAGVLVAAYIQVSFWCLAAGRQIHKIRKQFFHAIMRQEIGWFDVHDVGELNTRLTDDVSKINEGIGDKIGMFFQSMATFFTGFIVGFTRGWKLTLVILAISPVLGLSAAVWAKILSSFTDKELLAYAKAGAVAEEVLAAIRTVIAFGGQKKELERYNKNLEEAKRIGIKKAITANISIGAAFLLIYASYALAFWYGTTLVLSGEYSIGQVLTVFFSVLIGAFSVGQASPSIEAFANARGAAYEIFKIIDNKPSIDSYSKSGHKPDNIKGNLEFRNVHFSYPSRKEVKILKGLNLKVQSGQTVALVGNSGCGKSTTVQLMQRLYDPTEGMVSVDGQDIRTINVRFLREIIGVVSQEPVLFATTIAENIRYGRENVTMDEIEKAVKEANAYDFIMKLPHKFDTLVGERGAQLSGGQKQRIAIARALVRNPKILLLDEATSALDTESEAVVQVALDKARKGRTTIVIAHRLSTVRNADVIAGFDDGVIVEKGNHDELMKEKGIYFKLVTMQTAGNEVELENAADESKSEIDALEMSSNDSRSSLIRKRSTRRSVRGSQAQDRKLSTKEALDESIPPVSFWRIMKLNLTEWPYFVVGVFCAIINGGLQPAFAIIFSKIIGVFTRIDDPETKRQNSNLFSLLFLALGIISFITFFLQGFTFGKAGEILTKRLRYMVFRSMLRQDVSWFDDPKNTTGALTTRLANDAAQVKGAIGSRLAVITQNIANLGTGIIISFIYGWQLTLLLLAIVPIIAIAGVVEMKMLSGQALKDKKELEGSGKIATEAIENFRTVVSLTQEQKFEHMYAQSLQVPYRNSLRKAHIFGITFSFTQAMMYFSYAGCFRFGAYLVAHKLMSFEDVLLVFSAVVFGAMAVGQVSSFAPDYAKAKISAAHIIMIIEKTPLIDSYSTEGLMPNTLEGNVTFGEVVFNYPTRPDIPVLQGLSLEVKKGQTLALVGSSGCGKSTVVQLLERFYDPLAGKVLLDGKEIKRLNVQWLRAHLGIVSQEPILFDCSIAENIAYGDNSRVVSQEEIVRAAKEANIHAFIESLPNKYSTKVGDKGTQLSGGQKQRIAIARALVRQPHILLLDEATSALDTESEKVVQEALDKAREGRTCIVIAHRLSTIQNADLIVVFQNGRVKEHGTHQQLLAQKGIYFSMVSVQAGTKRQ", "assay": "In vitro transporter study", "assay_type": "in vitro ADME"}, "CYP2D6": {"target": "T2, CYP2D6 (Homo sapiens, UniProt P10635)", "T2 construct": "endogenous in cells; host or cells: human subjects (in vivo)", "T2 sequence (P10635 whole entry)": "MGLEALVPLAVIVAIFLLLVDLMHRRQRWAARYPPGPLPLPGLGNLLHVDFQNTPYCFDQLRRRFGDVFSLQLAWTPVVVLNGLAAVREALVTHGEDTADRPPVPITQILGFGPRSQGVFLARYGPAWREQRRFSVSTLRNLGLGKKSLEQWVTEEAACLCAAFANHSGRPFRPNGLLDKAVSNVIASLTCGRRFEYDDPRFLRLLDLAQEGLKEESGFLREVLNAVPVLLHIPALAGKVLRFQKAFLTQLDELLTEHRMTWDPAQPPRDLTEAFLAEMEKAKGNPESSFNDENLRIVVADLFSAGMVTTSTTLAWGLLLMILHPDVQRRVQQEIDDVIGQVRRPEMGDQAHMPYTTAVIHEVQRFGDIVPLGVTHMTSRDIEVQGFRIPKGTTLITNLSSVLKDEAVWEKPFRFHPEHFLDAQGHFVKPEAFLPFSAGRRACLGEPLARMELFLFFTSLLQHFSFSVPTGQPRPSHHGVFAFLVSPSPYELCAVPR", "assay": "Effect of voxelotor on CYP450 enzymes in vivo: CYP2D6"}, "CYP2C8": {"target": "T3, CYP2C8 (Homo sapiens, UniProt P10632)", "T3 construct": "endogenous in cells; host or cells: human subjects (in vivo)", "assay": "Effect of voxelotor on CYP450 enzymes in vivo: CYP2C8"}, "pregnant rats": {"system": "pregnant rats", "assay": "Pre- and postnatal development study in rats", "assay_type": "in vivo, rat", "experimental": "In a pre- and postnatal development study, voxelotor was administered orally to pregnant rats at 15, 50 and 250 mg/kg/day (gestation day 6 through lactation day 20). Maternal gestational body weights were decreased at 250 mg/kg/day, which continued to the end of lactation."}, "[6]": {"system": "CYP3A4, CYP3A5, CYP2B6, CYP2C19, CYP2C9, UGT1A1, and UGT1A9", "assay": "Metabolism, in vitro and in vivo studies", "assay_type": "in vitro ADME"}, "CYP1A2": {"target": "CYP1A2 (Homo sapiens, UniProt P05177)", "sequence (P05177 whole entry)": "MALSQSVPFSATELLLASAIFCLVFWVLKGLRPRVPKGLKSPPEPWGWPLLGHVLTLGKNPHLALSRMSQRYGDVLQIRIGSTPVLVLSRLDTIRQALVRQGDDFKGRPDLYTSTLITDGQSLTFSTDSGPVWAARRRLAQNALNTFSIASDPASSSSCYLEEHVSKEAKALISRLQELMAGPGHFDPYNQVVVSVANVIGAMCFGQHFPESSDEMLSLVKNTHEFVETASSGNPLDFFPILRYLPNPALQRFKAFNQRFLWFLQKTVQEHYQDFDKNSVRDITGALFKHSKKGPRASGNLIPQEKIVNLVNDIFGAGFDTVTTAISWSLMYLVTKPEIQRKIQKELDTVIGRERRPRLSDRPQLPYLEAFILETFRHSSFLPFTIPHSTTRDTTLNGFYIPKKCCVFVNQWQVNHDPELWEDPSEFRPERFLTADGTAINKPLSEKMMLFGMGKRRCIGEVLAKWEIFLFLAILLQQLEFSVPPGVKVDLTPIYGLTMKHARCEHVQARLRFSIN", "assay": "Clinical probe-substrate DDI study: caffeine", "assay_type": "in vivo", "experimental": "as §1, §2"}}, "data": [{"smiles": "CC(C)n1nccc1-c1ncccc1COc1cccc(O)c1C=O", "note": "[voxelotor, 2-hydroxy-6-((2-(1-isopropyl-1H-pyrazol-5-yl)pyridin-3-yl)methoxy)benzaldehyde]", "values": [{"measurement": "presence in milk", "setting": "[1]; lactating rats", "result": "detected in milk"}, {"measurement": "plasma concentrations relative to concentration in milk", "setting": "[1]; rats", "result": "higher"}, {"measurement": "hygroscopicity", "setting": "[2]", "result": "non-hygroscopic"}, {"measurement": "solubility in common organic solvents such as acetone and toluene", "setting": "[2]", "result": "highly soluble"}, {"measurement": "solubility in water", "setting": "[2]", "result": "insoluble in water"}, {"measurement": "effect of voxelotor on PK of CYP2C9 probe substrate S-warfarin", "setting": "CYP2C9; healthy subjects, voxelotor 900/600 mg QD, warfarin sodium 10 mg", "result": "no clinically meaningful effect"}, {"measurement": "CYP2C9 inhibition in vivo", "setting": "CYP2C9; human, in vivo", "result": "not"}, {"measurement": "% of patients with ≥20% Hb occupancy", "setting": "[3]", "result": "Approximately 76%"}, {"measurement": "% of patients with ≥20% Hb occupancy", "setting": "[3]; listed as Voxelotor", "result": 76.3, "unit": "%"}, {"measurement": "% Hb occupancy", "setting": "[3]", "result": 26, "unit": "%"}, {"measurement": "% Hb occupancy", "setting": "[3]; listed as Voxelotor", "result": "26.16 (32.2) %"}, {"measurement": "Cmax", "setting": "[3]; human, whole blood, oral, geometric mean (% CV), 600/900/1500 mg weight-based", "result": 148, "unit": "µg/mL"}, {"measurement": "AUC(0-t)", "setting": "[3]; human, whole blood, oral, geometric mean (% CV), 600/900/1500 mg weight-based, read-out: AUC0-24 h, whole blood", "result": 3260, "unit": "µg·h/mL"}, {"measurement": "half-life", "setting": "[3]; human, whole blood, oral, geometric mean (% CV), read-out: t1/2, whole blood (converted)", "result": 27.2, "unit": "h"}, {"measurement": "genotoxicity, rat Comet assay", "setting": "rat", "result": "not genotoxic"}, {"measurement": "CYP3A4 inhibition in vivo", "setting": "CYP3A4", "result": "inhibits"}, {"measurement": "CYP3A4 inhibitor classification", "setting": "CYP3A4", "result": "moderate inhibitor"}, {"measurement": "sperm morphology", "setting": "rats; 250 mg/kg/day", "result": "changes in sperm morphology"}, {"measurement": "sperm motility", "setting": "rats; 250 mg/kg/day", "result": "decreased"}, {"measurement": "fertility or reproductive function", "setting": "rats; oral 15, 50, 250 mg/kg/day", "result": "no effect on fertility or reproductive function"}, {"measurement": "exposure at 250 mg/kg/day relative to human exposure at 1,500 mg/day", "setting": "rats; rat, in vivo", "result": "approximately 5 times"}, {"measurement": "clinical measures of hemolysis (indirect bilirubin and % reticulocytes)", "setting": "Hb; in vivo", "result": "dose-dependent reduction"}, {"measurement": "Hb oxygen affinity as determined by change in p50", "setting": "Hb; linearly correlated with voxelotor exposure", "result": "dose-dependent increase"}, {"measurement": "whole blood AUC higher vs normal hepatic function, mild hepatic impairment", "setting": "[4]; Child Pugh A", "result": 14, "unit": "%"}, {"measurement": "whole blood AUC higher vs normal hepatic function, moderate hepatic impairment", "setting": "[4]; Child Pugh B", "result": 15, "unit": "%"}, {"measurement": "whole blood AUC higher vs normal hepatic function, severe hepatic impairment", "setting": "[4]; Child Pugh C", "result": 90, "unit": "%"}, {"measurement": "BSEP inhibition", "setting": "BSEP", "result": "not an inhibitor"}, {"measurement": "substrate of BSEP", "setting": "BSEP", "result": "not a substrate"}, {"measurement": "OAT3 inhibition", "setting": "OAT3", "result": "not an inhibitor"}, {"measurement": "dose and metabolites excreted in urine", "setting": "[5]", "result": 35.5, "unit": "%"}, {"measurement": "dose and metabolites excreted into feces", "setting": "[5]", "result": "approximately 62.6%"}, {"measurement": "dose excreted unchanged in feces", "setting": "[5]", "result": 33.3, "unit": "%"}, {"measurement": "dose excreted unchanged in urine", "setting": "[5]", "result": 0.08, "unit": "%"}, {"measurement": "serious adverse reactions, patients", "setting": "patients with SCD; 1,500 mg once daily, 3/88", "result": 3, "unit": "%"}, {"measurement": "permanent discontinuation due to an adverse reaction (Grades 1-4), patients", "setting": "patients with SCD; 1,500 mg once daily, 4/88", "result": 5, "unit": "%"}, {"measurement": "Adverse reaction: Abdominal Pain", "setting": "patients with SCD; 1,500 mg, N=88", "result": 23, "unit": "%"}, {"measurement": "Adverse reaction: Diarrhea", "setting": "patients with SCD; 1,500 mg, N=88", "result": 23, "unit": "%"}, {"measurement": "Adverse reaction: Headache", "setting": "patients with SCD; 1,500 mg, N=88", "result": 32, "unit": "%"}, {"measurement": "Adverse reaction: Nausea", "setting": "patients with SCD; 1,500 mg, N=88", "result": 19, "unit": "%"}, {"measurement": "Adverse reaction: Pyrexia", "setting": "patients with SCD; 1,500 mg, N=88", "result": 15, "unit": "%"}, {"measurement": "Adverse reaction: Rash", "setting": "patients with SCD; 1,500 mg, N=88", "result": 15, "unit": "%"}, {"measurement": "dosage modifications (dose reduction or dosing interruption) due to an adverse reaction, patients", "setting": "patients with SCD; 42/88", "result": 48, "unit": "%"}, {"measurement": "P-gp inhibition", "setting": "P-gp", "result": "not an inhibitor"}, {"measurement": "substrate of P-gp", "setting": "P-gp", "result": "not a substrate"}, {"measurement": "CYP2D6 inhibition in vivo", "setting": "CYP2D6", "result": "not"}, {"measurement": "CYP2C8 inhibition in vivo", "setting": "CYP2C8", "result": "not"}, {"measurement": "maternal gestational body weights", "setting": "pregnant rats; 250 mg/kg/day, gestation day 6 through lactation day 20", "result": "decreased"}, {"measurement": "findings in offspring", "setting": "pregnant rats; maternal dose 250 mg/kg/day", "result": "reduced survival and reduced body weights"}, {"measurement": "exposure at 250 mg/kg/day relative to exposure in patients at recommended dose", "setting": "pregnant rats; maternal dose with offspring effects", "result": "approximately 2.8 times"}, {"measurement": "enzymes mediating metabolism", "setting": "[6]", "result": "CYP3A4, CYP3A5, CYP2B6, CYP2C19, CYP2C9, UGT1A1, and UGT1A9"}, {"measurement": "effect of voxelotor on PK of CYP1A2 probe substrate caffeine", "setting": "CYP1A2; healthy subjects, voxelotor 900/600 mg QD, caffeine 100 mg", "result": "no clinically meaningful effect"}, {"measurement": "CYP1A2 inhibition in vivo", "setting": "CYP1A2; human, in vivo", "result": "not"}]}]}
